Reference: PubChem BioAssay AID179 (DTP/NCI, 2004)
Active and inactive are the calls of the source.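 The calls were made as follows: active = compounds giving half or more protection of infected cells from virus-caused growth loss, again on retest; inactive = the rest.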

System: CEM cells HIV-1 protection, formazan growth assay
Experiment: NCI AIDS Antiviral Assay
Conditions: for IC50: measured here: growth of uninfected CEM cells
Outline: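 Soluble formazan readout of cell growth; CEM cells ± HIV-1; 5 drug concs. ≥50% protection → retest; ≥50% again = moderately active; reproducible 100% = confirmed active.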

| SMILES | outcome | EC50 | IC50 |
| --- | --- | --- | --- |
| O=C(O)c1ccc(CS(=O)c2ccccc2)c([N+](=O)[O-])c1 (stereo not given) | inactive |  |  |
| NC(=O)CCN(CCC(N)=O)CCC(N)=O |  | > 200 µM | > 200 µM |
| CCN(CC)CC1CCCCN1CC(=O)N1CC(C)C(=O)Nc2ccccc21 (stereo not given) |  | 34.7 µM | 251 µM |
| COc1ccc(C2NC3=C(CCCC3)N2)cc1 |  | > 155 µM | 26.3 µM |
| Cc1cc(C)nc(NS(=O)(=O)c2ccc(NC(=O)c3cccc4c(NNc5ccc(S(=O)(=O)N=C(N)N)cc5)c5ccccc5nc34)cc2)n1 |  | > 100 µM | 50.1 µM |
| CC(CN=C(N)CSS(=O)(=O)O)OC12CC3CC(CC(C3)C1)C2 (stereo not given) |  | > 200 µM | 35.5 µM |
| C1CCCN(N2CCOCC2)CC1 |  | > 200 µM | > 200 µM |
| CN1C(=O)C(O)(Cc2nccc3ccccc23)c2ccccc21 (stereo not given) |  | > 200 µM | 36.3 µM |
| CC(=O)Oc1c(Cl)cc(C(=CCC[C@H]2CC[C@@]3(C)[C@@H](CC[C@@H]4[C@@H]3CC[C@]3(C)[C@@H](C(C)CCCC(C)C)CC[C@@H]43)C2)c2cc(Cl)c(OC(C)=O)c(C(=O)OCc3ccccc3)c2)cc1C(=O)OCc1ccccc1 (stereo not given in full) |  | > 200 µM | > 200 µM |
| O=C(O)[C@H](CSSC[C@@H](C(=O)O)N1C(=O)c2ccccc2C1=O)N1C(=O)c2ccccc2C1=O |  | > 200 µM | > 200 µM |
| CCCNC(C#N)c1ccc(OCCCCCCCCCCOc2ccc(C(C#N)NCCC)cc2)cc1 (stereo not given) |  | > 200 µM | 11 µM |
| O=[N+]([O-])c1cc(Cl)c(O)c(N=Nc2cc(S(=O)(=O)O)c3cccc4c3c2N=NN4)c1 |  | > 91.2 µM | 51.3 µM |
| C[N+]1(CC(O)(O)C(F)F)CCOCC1 |  | > 200 µM | > 200 µM |
| N#COc1ccc(Oc2ccccc2)cc1 |  | > 24.5 µM | > 24.5 µM |
| CCCCOC(=Nc1ccccc1)N(c1ccccc1)c1ccccc1 |  | > 200 µM | 36.3 µM |
| COc1cc(C(=O)Oc2ccc3c(c2)OCO3)cc(OC)c1OC |  | > 200 µM | > 200 µM |
| N#CC(C#N)=CN1CCOCC1 |  | > 200 µM | > 200 µM |

| SMILES | outcome | EC50 | IC50 |
| --- | --- | --- | --- |
| CCN1C[C@]2(C)CC[C@H](OC)C34C1C([C@H](OC(C)=O)[C@@H]32)[C@@]1(OC)C[C@H](OC)[C@H]2C[C@@H]4[C@@H]1[C@H]2O |  | > 77.6 µM | > 77.6 µM |
| COC1=CC(=O)c2nc(C)ccc2C1=O | inactive |  |  |
| COCCOCN(C(=O)C1=CCC2(CC1)OCCO2)c1ccccc1I |  | > 200 µM | > 200 µM |
| CCOC(=O)c1cc(OC(=O)CC)c2c(OC)ccc(OC)c2c1 | inactive |  |  |
| COC(=O)/C(=C\c1ccc(N(CCC#N)CCC#N)cc1)NC(=O)c1cc([N+](=O)[O-])ccc1Cl |  | > 74.1 µM | > 74.1 µM |
| O=C1CSC(=O)N1 |  | > 2140 µM | > 2140 µM |
| CN1CCN(c2cc3nsnc3c3nsnc23)CC1 |  | > 200 µM | > 200 µM |
| CCOC(=O)NC(C(F)(F)F)(C(F)(F)F)P(=O)(OC(C)C)OC(C)C |  | > 200 µM | > 200 µM |
| O=[N+]([O-])c1ccccc1NC1CCN(CCCC2(c3ccc(F)cc3)OCCO2)CC1 |  | > 200 µM | 12.9 µM |
| CCOP(=O)(c1ccccc1)C([CH2][Sn]([CH3])([CH3])[Cl])P(=O)(OC(C)C)OC(C)C (stereo not given) |  | > 200 µM | 4.47 µM |
| Clc1cccc(Cl)c1C1ON=C(c2ccccc2)N1C12CC3CC(CC(C3)C1)C2 (stereo not given) |  | > 100 µM | 14.5 µM |
| Cc1ccc(S(=O)(=O)SCCN)cc1 |  | > 115 µM | > 100 µM |
| COC(=O)CC(NC(=O)OCc1ccccc1)C(C(=O)OCc1ccccc1)C1(C)OCCO1 (stereo not given) |  | > 50.1 µM | 34.7 µM |
| COc1ccc(COCC(Cn2ccnc2)OCc2ccc(C(=O)O)cc2)cc1 (stereo not given) |  | > 631 µM | 589 µM |
| Cc1ccc(NC(=O)CSc2nnc(Cc3ccccc3)o2)cc1 |  | > 55 µM | > 55 µM |
| Cc1cc(NS(=O)(=O)c2ccc(NC(=O)c3ccccc3SC(=O)CCCC[n+]3ccccc3)cc2)nc(C)n1 |  | 26.3 µM | 107 µM |
| CN(C)CCNc1ccc(NCCN(C)C)c2c1C(=O)c1ncsc1C2=O |  | > 100 µM | 0.724 µM |
